Reference: US20260274892A1, “MACROCYCLIC BROAD SPECTRUM ANTIBIOTICS” (RQx Pharmaceuticals, Inc., priority 2017, published 2026)

What was measured:
[1] = system: Methicillin Resistant Staphylococcus aureus strain USA 200; assay: Minimum inhibitory concentration (MIC), CLSI broth micro-dilution, S. aureus; type: cell-based; conditions: Staphylococcus aureus, MRSA / USA200, MRSA USA 200, cation adjusted Mueller Hinton Broth + 0.002% Tween-80, 35° C., 22 hours
Method in brief: (§1)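 Antibacterial potency is measured as MIC by the CLSI broth dilution method. Bacteria at OD600 0.0005 in Tween-80-supplemented cation-adjusted Mueller Hinton broth face ten twofold compound dilutions for 22 h at 35° C.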

[2] = system: Escherichia coli ATCC 25922; assay: Minimum inhibitory concentration (MIC), CLSI broth micro-dilution, E. coli; type: cell-based; conditions: Escherichia coli, ATCC25922, 22 h
Method in brief: as §1

[3] = Table 6, cation adjusted Mueller Hinton Broth + 0.002% Tween-80, 35° C.

Row | Structure (SMILES) | MIC ([1]; Table 6) [µM] | MIC [2, 3] [µM] | MIC ([1]; Table 8) [µM] | MIC ([2]; Table 8, cation adjusted Mueller Hinton Broth + 0.002% Tween-80, 35° C.) [µM]
1 | Cc1cc(-c2ccc(C(C)(C)C)cc2)ccc1C(=O)N[C@@H](CCN)C(=O)N(C)[C@@H]1C(=O)N[C@@H](C)C(=O)N[C@H](C(=O)NCC#N)Cc2ccc(OCCN)c(c2)-c2cc1ccc2OCCN (racemic) [Compound 203, rac-(8S,11S,14S)-3,18-bis(2-aminoethoxy)-N-(cyanomethyl)-11-methyl-14-[methyl-[rac-(2S)-4-amino-2-[[4-(4-tert-butylphenyl)-2-methyl-benzoyl]amino]butanoyl]amino]-10,13-dioxo-9,12-diazatricyclo[13.3.1.12,6]icosa-1(18),2(20),3,5,15(19),16-hexaene-8-carboxamide] | 0.031 | 0.13 | – | –
2 | CCCCCc1ccc(-c2nc(C)c(C(=O)N[C@H](CCN)C(=O)N(C)[C@@H]3C(=O)N[C@@H](C)C(=O)N[C@H](C(=O)NCC#N)Cc4ccc(OCCN)c(c4)-c4cc3ccc4OCCN)o2)cc1 (racemic) [Compound 382, 4-methyl-2-(4-pentylphenyl)-N-[rac-(1R)-3-amino-1-[methyl-[rac-(7S,10S,13S)-3,18-bis(2-aminoethoxy)-13-(cyanomethylcarbamoyl)-10-methyl-8,11-dioxo-9,12-diazatricyclo[13.3.1.12,6]icosa-1(19),2,4,6(20),15,17-hexaen-7-yl]carbamoyl]propyl]oxazole-5-carboxamide] | 0.4 | 4.3 | – | –
3 | Cc1nc(-c2ccc(OC3CCCCC3)cc2)nc(C)c1C(=O)N[C@@H](CNC(N)=O)C(=O)N(C)[C@@H]1C(=O)N[C@@H](C)C(=O)N[C@H](C(=O)NCC#N)Cc2ccc(OCCN)c(c2)-c2cc1ccc2OCCN [Compound 499, (8S,11S,14S)-3,18-bis(2-aminoethoxy)-N-(cyanomethyl)-14-[[(2S)-2-[[2-[4-(cyclohexoxy)phenyl]-4,6-dimethyl-pyrimidine-5-carbonyl]amino]-3-ureido-propanoyl]-methyl-amino]-11-methyl-10,13-dioxo-9,12-diazatricyclo[13.3.1.12,6]icosa-1(18),2(20),3,5,15(19),16-hexaene-8-carboxamide] | 0.063 | 1.5 | – | –
4 | Cc1cc(-c2ccc(C(C)(C)C)cc2)nc(C)c1C(=O)N[C@@H](CCN)C(=O)N(C)[C@@H]1C(=O)N[C@@H](C)C(=O)N[C@H](C(=O)O)Cc2ccc(O)c(c2)-c2cc1ccc2OCCN (racemic) [Compound 644, rac-(8S,11S,14S)-18-(2-aminoethoxy)-3-hydroxy-11-methyl-14-[methyl-[rac-(2S)-4-amino-2-[[6-(4-tert-butylphenyl)-2,4-dimethyl-pyridine-3-carbonyl]amino]butanoyl]amino]-10,13-dioxo-9,12-diazatricyclo [13.3.1.12,6]icosa-1(18),2(20),3,5,15(19), 16-hexaene-8-carboxylic acid] | – | – | 1.2 | 0.58
5 | C[C@@H]1NC(=O)[C@@H](N(C)C(=O)[C@H](CCN)NC(=O)[C@H]2CC[C@@H](c3ccc(C(C)(C)C)cc3)CC2)c2ccc(OCCN)c(c2)-c2cc(ccc2OCCN)C[C@@H](C(=O)NCC#N)NC1=O [Compound 392, rac-(8S,11S,14S)-3,18-bis(2-aminoethoxy)-N-(cyanomethyl)-11-methyl-14-[methyl-[rac-(2S)-4-amino-2-[[4-(4-tert-butylphenyl)cyclohexanecarbonyl]amino]butanoyl]amino]-10,13-dioxo-9,12-diazatricyclo[13.3.1.12,6]icosa-1(18),2(20),3,5,15(19),16-hexaene-8-carboxamide] | 0.063 | 3 | – | –
6 | Cc1nc(-c2ccc(C(C)(C)C)cc2)ncc1C(=O)N[C@@H](CCN)C(=O)N(C)[C@@H]1C(=O)N[C@@H](C)C(=O)N[C@H](C(=O)NCC#N)Cc2ccc(OCCN)c(c2)-c2cc1ccc2O (racemic) [Compound 549, rac-(8S,11S,14S)-3-(2-aminoethoxy)-N-(cyanomethyl)-18-hydroxy-11-methyl-14-[methyl-[rac-(2S)-4-amino-2-[[2-(4-tert-butylphenyl)-4-methyl-pyrimidine-5-carbonyl]amino]butanoyl]amino]-10,13-dioxo-9,12-diazatricyclo[13.3.1.12,6]icosa-1(18),2(20),3,5,15(19),16-hexaene-8-carboxamide] | 0.035 | 0.21 | – | –
7 | Cc1nc(-c2ccc3c(c2)OCCO3)nc(C)c1C(=O)N[C@@H](CCN)C(=O)N(C)[C@@H]1C(=O)N[C@@H](C)C(=O)N[C@H](C(=O)NCC#N)Cc2ccc(OCCN)c(c2)-c2cc1ccc2OCCN (racemic) [Compound 334, rac-(8S,11S,14S)-3,18-bis(2-aminoethoxy)-N-(cyanomethyl)-11-methyl-14-[methyl-[rac-(2S)-4-amino-2-[[2-(2,3-dihydro-1,4-benzodioxin-6-yl)-4,6-dimethyl-pyrimidine-5-carbonyl]amino]butanoyl]amino]-10,13-dioxo-9,12-diazatricyclo[13.3.1.12,6]icosa-1(18),2(20),3,5,15(19),16-hexaene-8-carboxamide] | 0.5 | 4 | – | –
8 | Cc1nc(-c2ccc(C(C)(C)C)cc2O)nc(C)c1C(=O)N[C@@H](CCN)C(=O)N(C)[C@@H]1C(=O)N[C@@H](C)C(=O)N[C@H](C(=O)NCC#N)Cc2ccc(OCCN)c(c2)-c2cc1ccc2OCCN (racemic) [Compound 298, rac-(8S,11S,14S)-3,18-bis(2-aminoethoxy)-N-(cyanomethyl)-11-methyl-14-[methyl-[rac-(2S)-4-amino-2-[[2-(4-tert-butyl-2-hydroxy-phenyl)-4,6-dimethyl-pyrimidine-5-carbonyl]amino]butanoyl]amino]-10,13-dioxo-9,12-diazatricyclo[13.3.1.12,6]icosa-1(18),2(20),3,5,15(19),16-hexaene-8-carboxamide] | 0.016 | 0.13 | – | –
9 | CCCCCCCc1ccc(C(=O)N[C@@H](CCN)C(=O)N[C@@H]2C(=O)N[C@@H](CC)C(=O)N[C@H](C(=O)NCC#N)Cc3ccc(OCCN)c(c3)-c3cc2ccc3OCCN)c(C)c1 (racemic) [Compound 480, rac-(8S,11S,14S)-3,18-bis(2-aminoethoxy)-N-(cyanomethyl)-11-ethyl-10,13-dioxo-14-[[rac-(2S)-4-amino-2-[(4-heptyl-2-methyl-benzoyl)amino]butanoyl]amino]-9,12-diazatricyclo[13.3.1.12,6]icosa-1(18),2(20),3,5,15(19),16-hexaene-8-carboxamide] | 0.061 | 1.6 | – | –
10 | Cc1nc(-c2ccc3c(c2)CCCC3(C)C)nc(C)c1C(=O)N[C@@H](CCN)C(=O)N(C)[C@@H]1C(=O)N[C@@H](C)C(=O)N[C@H](C(=O)NCC#N)Cc2ccc(OCCN)c(c2)-c2cc1ccc2OCCN (racemic) [Compound 270, rac-(8S,11S,14S)-3,18-bis(2-aminoethoxy)-N-(cyanomethyl)-11-methyl-14-[methyl-[rac-(2S)-4-amino-2-[[2-(1,1-dimethyltetralin-6-yl)-4,6-dimethyl-pyrimidine-5-carbonyl]amino]butanoyl]amino]-10,13-dioxo-9,12-diazatricyclo[13.3.1.12,6]icosa-1(18),2(20),3,5,15(19),16-hexaene-8-carboxamide] | 0.012 | 0.064 | – | –
11 | Cc1nc(-c2ccc(C(C)(C)C)cc2)ncc1C(=O)N[C@@H](CCO)C(=O)N(C)[C@@H]1C(=O)N[C@@H](C)C(=O)N[C@H](C(=O)NCC#N)Cc2ccc(OCCN)c(c2)-c2cc1ccc2OCCN (racemic) [Compound 459, rac-(8S,11S,14S)-3,18-bis(2-aminoethoxy)-N-(cyanomethyl)-11-methyl-14-[methyl-[rac-(2S)-2-[[2-(4-tert-butylphenyl)-4-methyl-pyrimidine-5-carbonyl]amino]-4-hydroxy-butanoyl]amino]-10,13-dioxo-9,12-diazatricyclo[13.3.1.12,6]icosa-1(18),2(20),3,5,15(19),16-hexaene-8-carboxamide] | 0.083 | 0.71 | – | –
12 | Cc1nc(-c2ccc(C(C)(C)C)cc2)ncc1C(=O)N[C@@H](CNC(=N)N)C(=O)N(C)[C@@H]1C(=O)N[C@@H](C)C(=O)N[C@H](C(=O)NCC#N)Cc2ccc(OCCN)c(c2)-c2cc1ccc2OCCN (racemic) [Compound 462, rac-(8S,11S,14S)-3,18-bis(2-aminoethoxy)-N-(cyanomethyl)-11-methyl-14-[methyl-[rac-(2S)-2-[[2-(4-tert-butylphenyl)-4-methyl-pyrimidine-5-carbonyl]amino]-3-guanidino-propanoyl]amino]-10,13-dioxo-9,12-diazatricyclo[13.3.1.12,6]icosa-1(18),2(20),3,5,15(19),16-hexaene-8-carboxamide] | 0.027 | 5.4 | – | –
13 | CCC[C@H](NC(=O)c1c(C)nc(-c2ccc(C(C)(C)C)cc2)nc1C)C(=O)N[C@@H](CCN)C(=O)N(C)[C@@H]1C(=O)N[C@@H](C)C(=O)N[C@H](C(=O)NCC#N)Cc2ccc(OCCN)c(c2)-c2cc1ccc2OCCN (racemic) [Compound 469, rac-(8S,11S,14S)-3,18-bis(2-aminoethoxy)-N-(cyanomethyl)-11-methyl-14-[methyl-[rac-(2S)-4-amino-2-[[rac-(2S)-2-[[2-(4-tert-butylphenyl)-4,6-dimethyl-pyrimidine-5-carbonyl]amino]pentanoyl]amino]butanoyl]amino]-10,13-dioxo-9,12-diazatricyclo[13.3.1.12,6]icosa-1(18),2(20),3,5,15(19),16-hexaene-8-carboxamide] | 0.13 | 6 | – | –
